In patent publication US12473304B2, “Heterocyclic PAD4 inhibitors” (BRISTOL-MYERS SQUIBB COMPANY, priority 2020, dated 2025):

biological target: human PAD4 (hPAD4) (Homo sapiens (Human), UniProt Q9UM07); assay: RFMS Human PAD4 Functional Assay 1; format: biochemical; conditions: RFMS assay 1; 5 nM hPAD4, 250 μM BAEE substrate, 50 μM calcium, 37° C.
Procedure, shortened: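 Recombinant hPAD4 (5 nM) was preincubated with compound (top 50 μM, 0.5% DMSO) for 30 min at 37 °C, then reacted with 250 μM BAEE for 90 min at 37 °C in pH 7.5 HEPES buffer with 50 μM calcium and 5 μM TPEN. Product was derivatized with phenyl glyoxal and quantified by RapidFire MS.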

Sequence of human PAD4 (hPAD4) (Q9UM07 whole entry): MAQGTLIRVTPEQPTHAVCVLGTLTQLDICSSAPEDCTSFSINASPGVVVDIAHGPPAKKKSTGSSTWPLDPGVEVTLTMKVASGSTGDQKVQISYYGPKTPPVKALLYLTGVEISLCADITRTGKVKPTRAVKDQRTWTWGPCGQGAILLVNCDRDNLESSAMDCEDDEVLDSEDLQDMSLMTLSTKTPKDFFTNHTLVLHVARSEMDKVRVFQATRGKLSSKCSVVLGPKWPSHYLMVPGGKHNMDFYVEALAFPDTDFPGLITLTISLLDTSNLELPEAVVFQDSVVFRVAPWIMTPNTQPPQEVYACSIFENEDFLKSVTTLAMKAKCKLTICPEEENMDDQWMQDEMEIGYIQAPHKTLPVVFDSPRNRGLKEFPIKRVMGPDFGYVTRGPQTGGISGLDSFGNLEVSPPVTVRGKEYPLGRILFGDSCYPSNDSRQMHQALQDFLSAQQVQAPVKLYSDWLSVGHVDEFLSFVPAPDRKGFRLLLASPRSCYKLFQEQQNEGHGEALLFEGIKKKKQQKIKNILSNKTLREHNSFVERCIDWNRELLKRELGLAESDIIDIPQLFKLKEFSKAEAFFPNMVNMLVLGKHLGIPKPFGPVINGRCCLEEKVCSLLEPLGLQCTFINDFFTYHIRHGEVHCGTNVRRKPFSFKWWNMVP

IC50 [µM] | Structure (SMILES)
0.95 | COc1cc(C(=O)N2CCC[C@@H](N)C2)cn2nc(-c3cc4ccc(-c5cccc(CO)c5)cc4n3CC3CC3)c(C)c12 [Example 227, [3-(2-{6-[(3R)-3-Aminopiperidine-1-carbonyl]-4-methoxy-3-methylpyrazolo[1,5-a]pyridin-2-yl}-1-(cyclopropylmethyl)-1H-indol-6-yl)phenyl]methanol]
0.93 | COc1cc(C(=O)N2CCC[C@@H](N)C2)cn2nc(-c3cc4ccc(-c5ccc(CNC(C)=O)cc5)cc4n3CC3CC3)c(C)c12 [Example 228, N-{[4-(2-{6-[(3R)-3-Aminopiperidine-1-carbonyl]-4-methoxy-3-methylpyrazolo[1,5-a]pyridin-2-yl}-1-(cyclopropylmethyl)-1H-indol-6-yl)phenyl]methyl}acetamide]
0.13 | COc1cc(C(=O)N2CCC[C@@H](N)C2)cn2nc(-c3cc4ccc(-c5ccc(C(N)=O)cc5)cc4n3CC3CC3)c(C)c12 [Example 229, 4-(2-{6-[(3R)-3-Aminopiperidine-1-carbonyl]-4-methoxy-3-methylpyrazolo[1,5-a]pyridin-2-yl}-1-(cyclopropylmethyl)-1H-indol-6-yl)benzamide]
0.32 | COc1cc(C(=O)N2CCC[C@@H](N)C2)cn2nc(-c3cc4ccc(-c5ccc(C(=O)N(C)C)cc5)cc4n3CC3CC3)c(C)c12 [Example 230, 4-(2-{6-[(3R)-3-Aminopiperidine-1-carbonyl]-4-methoxy-3-methylpyrazolo[1,5-a]pyridin-2-yl}-1-(cyclopropylmethyl)-1H-indol-6-yl)-N,N-dimethylbenzamide]
0.46 | COc1cc(C(=O)N2CCC[C@@H](N)C2)cn2nc(-c3cc4ccc(-c5ccc(NS(C)(=O)=O)cc5)cc4n3CC3CC3)c(C)c12 [Example 231, N-[4-(2-{6-[(3R)-3-Aminopiperidine-1-carbonyl]-4-methoxy-3-methylpyrazolo[1,5-a]pyridin-2-yl}-1-(cyclopropylmethyl)-1H-indol-6-yl)phenyl]methanesulfonamide]
0.9 | COc1cc(C(=O)N2CCC[C@@H](N)C2)cn2nc(-c3cc4ccc(-c5cccc(CNC(C)=O)c5)cc4n3CC3CC3)c(C)c12 [Example 232, N-{[3-(2-{6-[(3R)-3-Aminopiperidine-1-carbonyl]-4-methoxy-3-methylpyrazolo[1,5-a]pyridin-2-yl}-1-(cyclopropylmethyl)-1H-indol-6-yl)phenyl]methyl}acetamide]
0.62 | COc1cc(C(=O)N2CCC[C@@H](N)C2)cn2nc(-c3cc4ccc(-c5ccccc5CO)cc4n3CC3CC3)c(C)c12 [Example 233, [2-(2-{6-[(3R)-3-Aminopiperidine-1-carbonyl]-4-methoxy-3-methylpyrazolo[1,5-a]pyridin-2-yl}-1-(cyclopropylmethyl)-1H-indol-6-yl)phenyl]methanol]
1.14 | COc1cc(C(=O)N2CCC[C@@H](N)C2)cn2nc(-c3cc4ccc(-c5ccc(CNS(C)(=O)=O)cc5)cc4n3CC3CC3)c(C)c12 [Example 234, N-{[4-(2-{6-[(3R)-3-Aminopiperidine-1-carbonyl]-4-methoxy-3-methylpyrazolo[1,5-a]pyridin-2-yl}-1-(cyclopropylmethyl)-1H-indol-6-yl)phenyl]methyl}methanesulfonamide]
0.25 | COc1cc(C(=O)N2CCC[C@@H](N)C2)cn2nc(-c3cc4ccc(-c5cccc(CNS(C)(=O)=O)c5)cc4n3CC3CC3)c(C)c12 [Example 235, N-{[3-(2-{6-[(3R)-3-Aminopiperidine-1-carbonyl]-4-methoxy-3-methylpyrazolo[1,5-a]pyridin-2-yl}-1-(cyclopropylmethyl)-1H-indol-6-yl)phenyl]methyl}methanesulfonamide]
0.25 | COc1cc(C(=O)N2CCC[C@@H](N)C2)cn2nc(-c3cc4ccc(-c5ccccc5C(N)=O)cc4n3CC3CC3)c(C)c12 [Example 237, 2-(2-{6-[(3R)-3-Aminopiperidine-1-carbonyl]-4-methoxy-3-methylpyrazolo[1,5-a]pyridin-2-yl}-1-(cyclopropylmethyl)-1H-indol-6-yl)benzamide]
0.42 | COc1cc(C(=O)N2CCC[C@@H](N)C2)cn2nc(-c3cc4ccc(-c5cccc6[nH]ncc56)cc4n3CC3CC3)c(C)c12 [Example 238, (3R)-1-{2-[1-(Cyclopropylmethyl)-6-(1H-indazol-4-yl)-1H-indol-2-yl]-4-methoxy-3-methylpyrazolo[1,5-a]pyridine-6-carbonyl}piperidin-3-amine]
0.07 | COc1cc(C(=O)N2CCC[C@@H](N)C2)cn2nc(-c3cc4ccc(-c5cc(F)c6[nH]c(=O)ccc6c5C)cc4n3CC3CC3)c(C)c12 [Example 239, 6-(2-{6-[(3R)-3-Aminopiperidine-1-carbonyl]-4-methoxy-3-methylpyrazolo[1,5-a]pyridin-2-yl}-1-(cyclopropylmethyl)-1H-indol-6-yl)-8-fluoro-5-methyl-1,2-dihydroquinolin-2-one]
0.18 | COc1cc(C(=O)N2CCC[C@@H](N)C2)cn2nc(-c3cc4ccc(-c5ccc(NC(C)=O)nc5)cc4n3CC3CC3)c(C)c12 [Example 240, N-[5-(2-{6-[(3R)-3-Aminopiperidine-1-carbonyl]-4-methoxy-3-methylpyrazolo[1,5-a]pyridin-2-yl}-1-(cyclopropylmethyl)-1H-indol-6-yl)pyridin-2-yl]acetamide]
0.09 | COc1cc(C(=O)N2C[C@H](N)C[C@@H](F)C2)cn2nc(-c3cc4ccc(N5CCC(C(=O)N(C)C)CC5)cc4n3CC3CC3)c(C)c12 [Example 242, 1-(2-{6-[(3R,5R)-3-Amino-5-fluoropiperidine-1-carbonyl]-4-methoxy-3-methylpyrazolo[1,5-a]pyridin-2-yl}-1-(cyclopropylmethyl)-1H-indol-6-yl)-N,N-dimethylpiperidine-4-carboxamide]
4.12 | COc1cc(C(=O)N2C[C@H](N)C[C@@H](F)C2)cn2nc(-c3cc4ccc(N5CCC(N(C)C(C)=O)CC5)cc4n3CC3CC3)c(C)c12 [Example 243, N-[1-(2-{6-[(3R,5R)-3-Amino-5-fluoropiperidine-1-carbonyl]-4-methoxy-3-methylpyrazolo[1,5-a]pyridin-2-yl}-1-(cyclopropylmethyl)-1H-indol-6-yl)piperidin-4-yl]-N-methylacetamide]
0.07 | COc1cc(C(=O)N2C[C@H](N)C[C@@H](F)C2)cn2nc(-c3cc4ccc(N5CCC(N(C)C(C)=O)CC5)cc4n3CC3CC3)c(C)c12 [Example 244, N-[1-(2-{6-[(3R,5R)-3-Amino-5-fluoropiperidine-1-carbonyl]-4-methoxy-3-methylpyrazolo[1,5-a]pyridin-2-yl}-1-(cyclopropylmethyl)-1H-indol-6-yl)piperidin-4-yl]-N-methylacetamide]
0.07 | COC(=O)N(C)C1CCN(c2ccc3cc(-c4nn5cc(C(=O)N6C[C@H](N)C[C@@H](F)C6)cc(OC)c5c4C)n(CC4CC4)c3c2)CC1 [Example 245, Methyl N-[1-(2-{6-[(3R,5R)-3-amino-5-fluoropiperidine-1-carbonyl]-4-methoxy-3-methylpyrazolo[1,5-a]pyridin-2-yl}-1-(cyclopropylmethyl)-1H-indol-6-yl)piperidin-4-yl]-N-methylcarbamate]
